From PubChem BioAssay AID192 (DTP/NCI, 2004)
“And” between values parts separate entries of the source, which are not always exact repeats. Equal entries are not always repeated. Toxic doses and inconclusive results are not listed.

System: BDF1 mice, B16 melanoma ip, median survival T/C
Assay: NCI In Vivo Anticancer Drug Screen. Data for tumor model B16 Melanoma (intraperitoneal) in B6D2F1 (BDF1) mice
Conditions: endpoint: median survival time, higher = longer survival
How it was run: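 Compounds were tested in mice carrying transplantable tumors. Survival or tumor size was recorded, and each value is the treated-group measurement (T) divided by that of the vehicle-treated control group (C).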

[1] = dose: 50.0 mg/kg/injection, schedule: Q01DX009 (ip), vehicle: saline with Tween-80
[2] = dose: 100.0 mg/kg/injection, schedule: Q01DX009 (ip), vehicle: saline with Tween-80
[3] = dose: 200.0 mg/kg/injection, schedule: Q01DX009 (ip), vehicle: saline with Tween-80
[4] = dose: 25.0 mg/kg/injection, schedule: Q01DX009 (ip), vehicle: saline
[5] = dose: 50.0 mg/kg/injection, schedule: Q01DX009 (ip), vehicle: Klucel (hydroxypropylcellulose) (HPC)
[6] = dose: 100.0 mg/kg/injection, schedule: Q01DX009 (ip), vehicle: Klucel (hydroxypropylcellulose) (HPC)
[7] = dose: 200.0 mg/kg/injection, schedule: Q01DX009 (ip), vehicle: Klucel (hydroxypropylcellulose) (HPC)
[8] = dose: 12.5 mg/kg/injection, schedule: Q01DX009 (ip), vehicle: Klucel (hydroxypropylcellulose) (HPC)
[9] = dose: 25.0 mg/kg/injection, schedule: Q01DX009 (ip), vehicle: Klucel (hydroxypropylcellulose) (HPC)
[10] = dose: 2.5 mg/kg/injection, schedule: Q01DX009 (ip), vehicle: saline with Tween-80
[11] = dose: 5.0 mg/kg/injection, schedule: Q01DX009 (ip), vehicle: saline with Tween-80

With `Cc1nc(-c2ccccc2)nc2c1CCO2` the T/C (dose: 33.0 mg/kg/injection, schedule: Q01DX009 (ip), vehicle: saline with Tween-80) was 92 % of control, the T/C [1] was 93 % of control and the T/C (dose: 75.0 mg/kg/injection, schedule: Q01DX009 (ip), vehicle: saline with Tween-80) was 89 % of control. The T/C [2] was 122 % of control.

`CCCC(C(=O)O)c1ccccc1C` (centres undefined) was tested, and the T/C [2] was 102 % of control, the T/C [3] was 99 % of control and the T/C (dose: 300.0 mg/kg/injection, schedule: Q01DX009 (ip), vehicle: saline with Tween-80) was 106 % of control.

For `CCCCNCCN(CC)CC`, the T/C [4] was 100 % of control, the T/C (dose: 50.0 mg/kg/injection, schedule: Q01DX009 (ip), vehicle: saline) was 100 % of control and the T/C (dose: 100.0 mg/kg/injection, schedule: Q01DX009 (ip), vehicle: saline) was 98 % of control.

With `N#CCC(=O)O` the T/C (dose: 18.75 mg/kg/injection, schedule: Q01DX009 (ip), vehicle: saline) was 109 % of control and the T/C (dose: 37.5 mg/kg/injection, schedule: Q01DX009 (ip), vehicle: saline) was 97 % of control.

In the case of `CC(=O)CC(C)=O.CC(=O)CC(C)=O.CC(=O)CC(C)=O.[Cr]`, the T/C [5] is reported as 96 % of control, the T/C [6] is reported as 97 % of control and the T/C [7] is reported as 90 % of control.

`Cc1ccc(NC(=O)Nc2ccc(C)c(NC(=O)Nc3ccc(C)cc3C)c2)c(C)c1` was tested, and the T/C [6] was 91 % of control and the T/C [7] was 96 % of control.

For `CCc1cccc(CC)c1N1C(=O)C=CC1=O`, the T/C (dose: 0.2 mg/kg/injection, schedule: Q01DX009 (ip), vehicle: saline with Tween-80) was 97 % of control, the T/C (dose: 0.39 mg/kg/injection, schedule: Q01DX009 (ip), vehicle: saline with Tween-80) was 99 % of control and the T/C (dose: 0.78 mg/kg/injection, schedule: Q01DX009 (ip), vehicle: saline with Tween-80) was 92 % of control. The T/C (dose: 1.56 mg/kg/injection, schedule: Q01DX009 (ip), vehicle: saline with Tween-80) was 86 % of control and 90 % of control.

`COC1C(O)C(C)OC(OC2CC(O)C3(C)C(CCC4C3CCC3(C)C(C5=CC(=O)OC5)CCC43O)C2)C1O` (centres undefined) (tested in a mixture with another compound) was tested, and the T/C (dose: 2.0 mg/kg/injection, schedule: Q01DX009 (ip), vehicle: saline) was 99 % of control, the T/C (dose: 4.0 mg/kg/injection, schedule: Q01DX009 (ip), vehicle: saline) was 97 % of control and the T/C (dose: 8.0 mg/kg/injection, schedule: Q01DX009 (ip), vehicle: saline) was 97 % of control. For the same compound, the T/C (dose: 16.0 mg/kg/injection, schedule: Q01DX009 (ip), vehicle: saline) was 94 % of control, the T/C (dose: 32.0 mg/kg/injection, schedule: Q01DX009 (ip), vehicle: saline) was 94 % of control and the T/C (dose: 64.0 mg/kg/injection, schedule: Q01DX009 (ip), vehicle: saline) was 88 % of control.

In the case of `COc1c(OC(C)=O)cc2c(OC(C)=O)c1CC(C)CC(OC)C(O)C(C)/C=C(\C)C(OC(N)=O)C(OC)/C=C\C=C(/C)C(=O)N2` (centres undefined), the T/C (dose: 12.5 mg/kg/injection, schedule: Q01DX005 (ip), vehicle: other) is reported as 97 % of control, the T/C (dose: 25.0 mg/kg/injection, schedule: Q01DX005 (ip), vehicle: other) is reported as 98 % of control and the T/C (dose: 50.0 mg/kg/injection, schedule: Q01DX005 (ip), vehicle: other) is reported as 97 % of control. The T/C (dose: 100.0 mg/kg/injection, schedule: Q01DX005 (ip), vehicle: other) was 101 % of control and the T/C (dose: 200.0 mg/kg/injection, schedule: Q01DX005 (ip), vehicle: other) was 94 % of control.

In the case of `C=C1C(=O)O[C@H]2/C=C(/C)C3=CC(=O)[C@@](C)(C[C@@H](OC(=O)/C(C)=C\C)C12)O3` (some centres undefined), the T/C (dose: 0.75 mg/kg/injection, schedule: Q01DX009 (ip), vehicle: Klucel (hydroxypropylcellulose) (HPC)) is reported as 98 % of control, the T/C (dose: 1.5 mg/kg/injection, schedule: Q01DX009 (ip), vehicle: Klucel (hydroxypropylcellulose) (HPC)) is reported as 93 % of control and the T/C (dose: 3.0 mg/kg/injection, schedule: Q01DX009 (ip), vehicle: Klucel (hydroxypropylcellulose) (HPC)) is reported as 88 % of control. For the same compound, the T/C (dose: 6.0 mg/kg/injection, schedule: Q01DX009 (ip), vehicle: Klucel (hydroxypropylcellulose) (HPC)) was 91 % of control and the T/C (dose: 12.0 mg/kg/injection, schedule: Q01DX009 (ip), vehicle: Klucel (hydroxypropylcellulose) (HPC)) was 90 % of control.

`Cc1ccc(Nc2nnc(N=Nc3ccccc3)s2)cc1C` was tested, and the T/C [5] was 86 % of control, the T/C [6] was 91 % of control and the T/C [7] was 91 % of control.

In the case of `COc1ccc2c(c1)C13CCCCC1C(C2)N(CC1(c2ccccc2)CC1)CC3` (centres undefined), the T/C (dose: 4.1 mg/kg/injection, schedule: Q01DX009 (ip), vehicle: Klucel (hydroxypropylcellulose) (HPC)) is reported as 93 % of control, the T/C (dose: 6.25 mg/kg/injection, schedule: Q01DX009 (ip), vehicle: Klucel (hydroxypropylcellulose) (HPC)) is reported as 93 % of control and the T/C (dose: 9.3 mg/kg/injection, schedule: Q01DX009 (ip), vehicle: Klucel (hydroxypropylcellulose) (HPC)) is reported as 93 % of control and 109 % of control. The T/C [8] was 119 % of control, the T/C [9] was 121 % of control and the T/C [5] was 97 % of control.

In the case of `C[C@H]1C(=O)O[C@@H]2CCN3CC=C(COC(=O)[C@](C)(O)[C@@]1(C)O)[C@H]23`, the T/C [4] is reported as 123 % of control.

For `CCC1(O)CC(OC2CC(N(C)C)C(OC3CC4OC5CC(=O)C(C)OC5OC4C(C)O3)C(C)O2)c2c(cc3c(c2O)C(=O)c2c(O)ccc(O)c2C3=O)C1C(=O)OC` (centres undefined), the T/C (dose: 0.75 mg/kg/injection, schedule: Q01DX009 (ip), vehicle: saline) was 88 % of control, the T/C (dose: 0.75 mg/kg/injection, schedule: Q04DX003 (ip), vehicle: saline) was 97 % of control and the T/C (dose: 1.5 mg/kg/injection, schedule: Q01DX009 (ip), vehicle: saline) was 105 % of control. The T/C (dose: 1.5 mg/kg/injection, schedule: Q04DX003 (ip), vehicle: saline) was 88 % of control and the T/C (dose: 3.0 mg/kg/injection, schedule: Q04DX003 (ip), vehicle: saline) was 97 % of control.

With `CCSC(=O)N1c2ccc(OC)cc2C=CC1C#N` (centres undefined) the T/C [2] was 121 % of control.

For `COc1ccc(NC2=C(C)C(=O)C3=C(C2=O)[C@H](COC(N)=O)[C@]2(OC)[C@@H]4N[C@@H]4CN32)cc1OC`, the T/C (dose: 3.0 mg/kg/injection, schedule: Q04DX003 (ip), vehicle: water) was 223 % of control and the T/C (dose: 6.0 mg/kg/injection, schedule: Q04DX003 (ip), vehicle: water) was 312 % of control.

For `Cc1ccc2c(ccc3c[n+]4ccccc4c(C)c32)c1`, the T/C (dose: 1.25 mg/kg/injection, schedule: Q01DX009 (ip), vehicle: saline with Tween-80) was 95 % of control, the T/C [10] was 95 % of control and 102 % of control and the T/C [11] was 90 % of control and 102 % of control.

With `OCCN1CCN(CCCN2c3ccccc3Oc3ccc(C(F)(F)F)cc32)CC1` the T/C (dose: 0.78 mg/kg/injection, schedule: Q01DX009 (ip), vehicle: saline) was 105 % of control, the T/C (dose: 1.56 mg/kg/injection, schedule: Q01DX009 (ip), vehicle: saline) was 100 % of control and the T/C (dose: 3.12 mg/kg/injection, schedule: Q01DX009 (ip), vehicle: saline) was 107 % of control. For the same compound, the T/C (dose: 6.25 mg/kg/injection, schedule: Q01DX009 (ip), vehicle: saline) was 102 % of control and the T/C (dose: 12.5 mg/kg/injection, schedule: Q01DX009 (ip), vehicle: saline) was 87 % of control.

`Nc1nc(F)nc2nc[nH]c12` was tested, and the T/C (dose: 5.0 mg/kg/injection, schedule: Q01DX009 (ip), vehicle: Klucel (hydroxypropylcellulose) (HPC)) was 88 % of control and 109 % of control, the T/C (dose: 10.0 mg/kg/injection, schedule: Q01DX009 (ip), vehicle: Klucel (hydroxypropylcellulose) (HPC)) was 90 % of control and 118 % of control and the T/C (dose: 20.0 mg/kg/injection, schedule: Q01DX009 (ip), vehicle: Klucel (hydroxypropylcellulose) (HPC)) was 95 % of control and 122 % of control.

For `O=c1[nH]c2ccccc2nc1CBr`, the T/C (dose: 0.38 mg/kg/injection, schedule: Q01DX009 (ip), vehicle: saline with Tween-80) was 104 % of control, the T/C (dose: 0.75 mg/kg/injection, schedule: Q01DX009 (ip), vehicle: saline with Tween-80) was 100 % of control and the T/C (dose: 1.5 mg/kg/injection, schedule: Q01DX009 (ip), vehicle: saline with Tween-80) was 104 % of control. The T/C (dose: 3.0 mg/kg/injection, schedule: Q01DX009 (ip), vehicle: saline with Tween-80) was 92 % of control.

With `COC(=O)C(Br)C1CCCCC1` (centres undefined) the T/C [1] was 100 % of control, the T/C [2] was 103 % of control and the T/C [3] was 99 % of control.

With `c1cc2cc3c(cc2cc1CC1NCCc2cc4c(cc21)OCO4)OCO3` (centres undefined) the T/C [9] was 97 % of control, the T/C [5] was 89 % of control and the T/C [6] was 94 % of control.

In the case of `COC(=O)c1ccc(-c2ccccc2)cc1`, the T/C [8] is reported as 93 % of control, the T/C [9] is reported as 88 % of control and the T/C [5] is reported as 97 % of control. The T/C [6] was 93 % of control.

`O=C/C(Cl)=C(/Cl)C(=O)O` was tested, and the T/C [10] was 99 % of control, the T/C [11] was 87 % of control and the T/C (dose: 10.0 mg/kg/injection, schedule: Q01DX009 (ip), vehicle: saline with Tween-80) was 102 % of control. The T/C (dose: 20.0 mg/kg/injection, schedule: Q01DX009 (ip), vehicle: saline with Tween-80) was 106 % of control.
